Data published in ChEMBL document CHEMBL4819119, “Design and evaluation of 1,2,3-dithiazoles and fused 1,2,4-dithiazines as anti-cancer agents” (Bioorg Med Chem Lett, 2021).

System: DU-145
Assay: Cytotoxicity against human DU-145 cells
Type: functional, cell-based

## CC(=O)O[C@@]12CO[C@@H]1C[C@H](O)[C@@]1(C)C(=O)[C@H](O)C3=C(C)[C@@H](OC(=O)[C@H](O)[C@@H](NC(=O)OC(C)(C)C)c4ccccc4)C[C@@](O)([C@@H](OC(=O)c4ccccc4)[C@H]21)C3(C)C [DOCETAXEL ANHYDROUS]
  IC50: 5 nM
